According to US11400093B2, “Deuterated elagolix-like compositions and methods” (Lupin Inc., priority 2019, dated 2022):

How the values were obtained:
Format in all cases: in vitro ADME
[1] = test system: cDNA-expressed CYP1A2, CYP2A6, CYP2B6, CYP2C8, CYP2C9, CYP2C19, CYP2D6, CYP2E1, CYP3A4, and CYP3A5; experiment: Metabolism by cDNA-expressed human CYP enzymes, all isoforms (parent remaining); conditions: for average percent of parent compound remaining for all isoforms and concentrations: 1.0 μM and 10 μM, 120 minutes incubation, all ten CYP isoforms
Procedure: (§1) A study was conducted to determine the effect of deuteration on the metabolism of elagolix by human cytochrome P450 (CYP) enzymes. The metabolism of 4-[[(1R)-2-[5-(2-fluoro-3-methoxyphenyl)-3-[[2-fluoro-6(trifluoromethyl)phenyl]methyl]-3,6-dihydro-4-methyl-2,6-dioxo-1(2H)-pyrimidinyl]-1-phenylethyl]amino] butanoic acid-d3 (elagolix-d3) sodium salt and 4-[[(1R)-2-[5-(2-fluoro-3-methoxyphenyl)-3-[[2-fluoro-6(trifluoromethyl)phenyl] methyl]-3,6-dihydro-4-methyl-2,6-dioxo-1(2H)-pyrimidinyl]-1-phenylethyl]amino] butanoic acid-d6 (elagolix-d6) sodium salt by cDNA-expressed CYP enzymes were investigated in vitro and compared to results obtained with undeuterated elagolix to determine which human cytochrome P450 (CYP) enzymes are involved in the metabolism of elagolix, elagolix-d3, and elagolix-d6.
Commercially available cDNA-expressed human CYP enzymes were used for this study.
A 600 μL reaction mixture containing enzyme protein, NADPH generating system (1.3 mM NADP+, 3.3 mM glucose-6-phosphate, 0.4 U/mL glucose-6-phosphate dehydrogenase, 3.3 mM magnesium chloride) and each test article (elagolix, elagolix-d3, elagolix-d6) at two concentrations (e.g. 1 μM and 10 μM) in 100 mM potassium phosphate (pH 7.4) was incubated at 37° C. At two time points (0 and 120 min), the reaction was stopped by removing an aliquot and combining it with an equal volume of cold acetonitrile containing an internal standard (deuterated elagolix was used as the internal standard for elagolix, and elagolix was used as the internal standard for elagolix-d3 and -d6) and placed on ice. Samples were centrifuged to pellet the protein and the supernatant was frozen at −20° C. for subsequent analysis by LC-MS/MS.
Protein concentrations were constant for all isoforms within each experiment and standardized by the addition of control microsomes. Incubations were performed in duplicate. Incubations with vector control enzyme preparations and without enzyme source were included as negative controls.
All other positive controls were assayed at one concentration in duplicate in accordance with the methods described above. The percent of parent remaining at the end of the incubation was compared to 0 min based on the peak area ratio of the substrate and internal standard.
LC-MS/MS methods for elagolix, elagolix-d3, and elagolix-d6 were developed. The fraction of parent compound remaining compared to 0 min was determined based on peak area ratio (analyte/internal standard).
Elagolix, elagolix-d3, and elagolix-d6 at 1.0 μM and 10 μM were each incubated in the presence of cDNA-expressed CYP1A2, CYP2A6, CYP2B6, CYP2C8, CYP2C9, CYP2C19, CYP2D6, CYP2E1, CYP3A4, and CYP3A5 for 120 minutes. The average percent of parent compound remaining for all isoforms and concentrations was >11% for elagolix, >60% for elagolix-d3, and >26% for elagolix-d6.

[2] = molecular target: T1, cDNA-expressed CYP2D6 (Homo sapiens, UniProt P10635); experiment: Metabolism by cDNA-expressed CYP2D6 (parent remaining); conditions: 1 μM, 120 min
T1 construct: purchased
T1 sequence (P10635 whole entry): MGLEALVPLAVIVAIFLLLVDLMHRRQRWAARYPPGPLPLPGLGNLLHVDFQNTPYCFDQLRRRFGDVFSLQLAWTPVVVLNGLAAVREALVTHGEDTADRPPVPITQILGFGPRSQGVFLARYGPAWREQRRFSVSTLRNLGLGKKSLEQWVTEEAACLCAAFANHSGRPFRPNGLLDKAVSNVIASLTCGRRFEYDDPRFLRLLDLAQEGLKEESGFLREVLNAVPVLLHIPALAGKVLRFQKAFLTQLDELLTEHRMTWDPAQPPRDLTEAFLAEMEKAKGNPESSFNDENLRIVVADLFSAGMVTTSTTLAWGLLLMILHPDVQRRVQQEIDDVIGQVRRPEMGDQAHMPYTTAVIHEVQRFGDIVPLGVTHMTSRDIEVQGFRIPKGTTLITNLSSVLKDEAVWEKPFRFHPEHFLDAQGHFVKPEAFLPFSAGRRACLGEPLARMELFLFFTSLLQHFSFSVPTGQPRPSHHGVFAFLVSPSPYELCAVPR
Procedure: as §1
(§2) Commercially available cDNA-expressed human CYP enzymes were used for this study. […]
(§3) LC-MS/MS methods for elagolix, elagolix-d3, and elagolix-d6 were developed. The fraction of parent compound remaining compared to 0 min was determined based on peak area ratio (analyte/internal standard). […]

[3] = molecular target: T2, cDNA-expressed CYP3A5 (Homo sapiens, UniProt P20815); experiment: Metabolism by cDNA-expressed CYP3A5 (parent remaining); conditions: 1 μM, 120 min
T2 construct: purchased
T2 sequence (P20815 whole entry): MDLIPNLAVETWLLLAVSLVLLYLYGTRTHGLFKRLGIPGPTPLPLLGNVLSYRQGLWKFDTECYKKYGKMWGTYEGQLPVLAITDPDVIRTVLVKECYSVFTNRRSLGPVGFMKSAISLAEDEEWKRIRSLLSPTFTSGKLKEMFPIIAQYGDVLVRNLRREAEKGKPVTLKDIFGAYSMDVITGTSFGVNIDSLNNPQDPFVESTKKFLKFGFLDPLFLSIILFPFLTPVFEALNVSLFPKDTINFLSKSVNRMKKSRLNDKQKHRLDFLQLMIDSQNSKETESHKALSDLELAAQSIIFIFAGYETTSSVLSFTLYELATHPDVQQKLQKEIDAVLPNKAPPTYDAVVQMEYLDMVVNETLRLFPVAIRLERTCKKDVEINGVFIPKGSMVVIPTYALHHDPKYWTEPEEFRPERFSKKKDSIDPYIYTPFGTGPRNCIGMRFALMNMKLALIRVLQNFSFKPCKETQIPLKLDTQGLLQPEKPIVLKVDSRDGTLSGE
Procedure: as §1, §2, §3

average percent of parent compound remaining for all isoforms and concentrations [1] [%] | percent parent remaining, cDNA-expressed CYP2D6 [2] [%] | percent parent remaining, cDNA-expressed CYP3A5 [3] [%] | average amount of parent compound in a CYP enzyme assay after 120 minutes relative to that of elagolix [1] | depletion by cDNA-expressed CYP2D6 [2] | Structure (SMILES)
> 11 | 62 | 11 | – | – | COc1cccc(-c2c(C)n(Cc3c(F)cccc3C(F)(F)F)c(=O)n(C[C@H](NCCCC(=O)O)c3ccccc3)c2=O)c1F [elagolix, 4-({(1R)-2-[5-(2-fluoro-3methoxyphenyl)-3-{[2-fluoro-6-(trifluoromethyl)phenyl]methyl}-4-methyl-2,6-dioxo-3,6dihydropyrimidin-1(2H)-yl]-1-phenylethyl}amino)butanoate]
> 60 | – | 60 | more than 400% | did not demonstrate any depletion | [2H]C([2H])([2H])Oc1cccc(-c2c(C)n(Cc3c(F)cccc3C(F)(F)F)c(=O)n(C[C@H](NCCCC(=O)O)c3ccccc3)c2=O)c1F [elagolix-d3, 4-[[(1R)-2-[5-(2-fluoro-3-methoxyphenyl)-3-[[2-fluoro-6(trifluoromethyl)phenyl]methyl]-3,6-dihydro-4-methyl-2,6-dioxo-1(2H)-pyrimidinyl]-1-phenylethyl]amino] butanoic acid-d3]
> 26 | – | – | 136% | – | [2H]C([2H])(N[C@@H](Cn1c(=O)c(-c2cccc(OC)c2F)c(C)n(Cc2c(F)cccc2C(F)(F)F)c1=O)c1ccccc1)C([2H])([2H])C([2H])([2H])C(=O)O [elagolix-d6, 4-[[(1R)-2-[5-(2-fluoro-3-methoxyphenyl)-3-[[2-fluoro-6(trifluoromethyl)phenyl]methyl]-3,6-dihydro-4-methyl-2,6-dioxo-1(2H)-pyrimidinyl]-1-phenylethyl]amino] butanoic acid-d6]
